The text below walks through data of paper PMC10870767, “Extraction, Purification, and Characterization of Olive (Olea europaea L., cv. Chemlal) Polyphenol Oxidase” (Journal of Agricultural and Food Chemistry, 2024).

Each structure is given as a SMILES string. Values joined by “and” are separate entries in the source; they are usually repeats but may differ in a detail not shown here. Equal values may be shown once. Read-outs that look alike come from different tables or passages of the source.

Test [1] deals with T1, olive polyphenol oxidase (OePPO) (Olea europaea, UniProt A0A8S0TLT4). Description: Effect of inhibitors on OePPO activity. It counts as biochemical, Olea europaea L., cv. Chemlal. Particulars: 10 mM catechol; for IC100: read-out: concentration for complete suppression/inhibition of OePPO activity. As to the method:
(§1) OePPO activity measurements were carried out spectrophotometrically at 25 °C using a 96-well microplate reader (Infinite M200, Tecan). The assay mixture, with a volume of 200 μL, was monitored for the increase in absorbance at 410 nm as the enzyme converted catechol, starting from ∼25 s after mixing (time required for pipetting and initiating the microplate reader) and continuing until the reaction curve reached a plateau phase (after ∼15 min). The standard reaction mixture consisted of 0.5 μg of enzyme and 10 mM catechol in 50 mM sodium phosphate buffer (pH 7.5) along with the optimal concentration of SDS (5 mM) as determined. […] OePPO activity was assessed by calculating the slope of the initial linear segment of the experimental curves, where the absorbance was plotted against time. The activity was expressed in U/mg, with one unit of enzymatic activity (U) defined as the amount of enzyme that catalyzed the formation of 1 μmol of quinones per minute (1 U = 1 μmol/min). All experiments were conducted in triplicate, and the protein concentrations in the enzyme solutions were determined using the Bradford method[15] with bovine serum albumin as a standard.
The optimum concentration range for each inhibitor was established through preliminary experiments (data not shown). OePPO activity was measured using the same assay conditions previously described, and the results were expressed as the percentage of residual activity relative to the control mixture (100%) without inhibitors. The half inhibitory concentration (IC50) was determined for each inhibitor using nonlinear regression.

Test [2] has as its system OePPO1. Description: Effect of metal ions on OePPO1 activity. The format is biochemical, Olea europaea L., cv. Chemlal.
The test system of test [3] is apricot PPO. To be noted: cited from earlier work; for residual activity: 10 mM inhibitor.
For test [4], the system named is mango PPO. To be noted: cited from earlier work; for residual activity: 10 mM inhibitor.
Test [5] relates to blueberry PPO. More on the design: method as in PMID 27719900. To be noted: cited from earlier work.
Test [6] deals with T1, olive polyphenol oxidase (OePPO). Description: Enzyme kinetics and substrate specificity of purified OePPO. It counts as biochemical, Olea europaea L., cv. Chemlal. To be noted: for kcat: substrate of purified OePPO, 50 mM sodium phosphate buffer pH 7.5, 5 mM SDS, 25 °C. Here is the method: as §1
For test [7] the target is unchanged. Description: Effect of SDS on OePPO activity (activation of latent enzyme). It counts as biochemical, Olea europaea L., cv. Chemlal. Here is the method: as §1
The effect of different concentrations of SDS (0–100 mM) on OePPO activity was investigated.

The subject of test [8] is banana PPO. Also on record: method as in doi:10.1021/jf980473d. To be noted: cited from earlier work.
Where [9] appears, read: 1 mM metal salt, 50 mM sodium citrate buffer, 5 mM SDS, control without metal ions = 100%.
Where [10] appears, read: 5 mM metal salt, 50 mM sodium citrate buffer, 5 mM SDS, control without metal ions = 100%.
Setting [11] is: 10 mM metal salt, 50 mM sodium citrate buffer, 5 mM SDS, control without metal ions = 100%.
The mark [12] stands for this setting: 100 mM metal salt, 50 mM sodium citrate buffer, 5 mM SDS, control without metal ions = 100%.

T1 sequence (A0A8S0TLT4 entry or part of it): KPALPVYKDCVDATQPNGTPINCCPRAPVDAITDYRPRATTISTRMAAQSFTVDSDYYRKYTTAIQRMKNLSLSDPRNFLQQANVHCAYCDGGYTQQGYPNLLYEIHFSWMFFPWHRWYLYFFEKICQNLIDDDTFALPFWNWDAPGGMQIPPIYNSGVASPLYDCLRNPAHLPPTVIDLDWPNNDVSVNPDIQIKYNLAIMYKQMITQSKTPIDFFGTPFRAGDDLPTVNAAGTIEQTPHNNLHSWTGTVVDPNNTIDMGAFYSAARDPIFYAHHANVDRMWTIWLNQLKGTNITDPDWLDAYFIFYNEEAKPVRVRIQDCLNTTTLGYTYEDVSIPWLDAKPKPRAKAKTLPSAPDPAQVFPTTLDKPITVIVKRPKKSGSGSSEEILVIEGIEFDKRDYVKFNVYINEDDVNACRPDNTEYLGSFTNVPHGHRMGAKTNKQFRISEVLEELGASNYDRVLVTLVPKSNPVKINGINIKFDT

Consider `NC(=S)Nc1ccccc1` [N-phenylthiourea], for which the “concentration that completely inhibited enzymatic activity” value in test [1] (pH 7.5, 5 mM SDS) came out at 50 µM.
As to `[Cl][Fe][Cl]` [FeCl2], the relative activity in test [2] (setting [9]) was 87 ± 2.3%; in test [2] (1 mM metal salt, 50 mM sodium citrate buffer, 5 mM SDS, control without metal ions = 100%, listed as Fe^2+), 87%; in test [2] (setting [10]), 74 ± 1.7%; in test [2] (setting [11]), 56 ± 2.0%; in test [2] (setting [12]), 22 ± 6.6%.
Turning to `O=S(O)S(=O)(=O)O` [sodium metabisulfite], the IC100 in test [1] (pH 7.5, 5 mM SDS) came out at 1000 µM. Besides, the “concentration with complete inhibitory effect” value in test [3], in test [4] and in test [5] was “around 1 mM” throughout.
Consider `NCCc1ccc(O)cc1` [tyramine], for which, in test [6], the kcat is reported as 0.093 ± 0.005 s^–1.
With `[Cl][Mn][Cl]` [MnCl2], the relative activity came to 99 ± 2.1% in test [2] (setting [9]), 92.1 ± 0.84% in test [2] (setting [10]), 60 ± 3.2% in test [2] (setting [11]) and 0.0 ± 0.00% in test [2] (setting [12]).
`N[C@@H](CS)C(=O)O` [L-cysteine]: the “concentration with complete inhibitory effect” value in test [3], in test [4] and in test [5] was “around 1 mM” throughout.
Take `O=S(=O)([O-])[O-].[Ni+2]` [NiSO4]: the relative activity in test [2] (setting [9]) is 103 ± 2.3%; in test [2] (setting [10]), 101.3 ± 0.57%; in test [2] (setting [11]), 92 ± 1.7%; in test [2] (setting [12]), 88 ± 4.3%.
Consider `O=C1O[C@H]([C@@H](O)CO)C(O)=C1O` [ascorbic acid], for which the IC100 in test [1] (pH 7.5, 5 mM SDS) worked out at 1000 µM. Besides, the “concentration with complete inhibitory effect” value in test [3], in test [4] and in test [5] was “around 1 mM” each time.
As to `[Cl-].[Cl-].[Zn+2]` [ZnCl2], the relative activity in test [2] (setting [9]) is 99 ± 1.2%; in test [2] (setting [10]), 108.9 ± 0.92%; in test [2] (5 mM metal salt, 50 mM sodium citrate buffer, 5 mM SDS, control without metal ions = 100%, listed as Zn^2+), 109%; in test [2] (setting [11]), 107.3 ± 0.54%; in test [2] (setting [12]), 15 ± 5.1%; in test [2] (100 mM metal salt, 50 mM sodium citrate buffer, 5 mM SDS, control without metal ions = 100%, listed as Zn^2+), “drastically reduced”.
For the compound `O=c1cc(CO)occ1O` [Kojic acid, kojic acid], in test [4] (10 mM), the “inhibition of enzymatic browning” value is given as “effectively inhibiting enzymatic browning”.
Turning to `[Cl-].[K+]` [KCl], the relative activity was determined as 98 ± 3.8% in test [2] (setting [9]), 98 ± 1.4% in test [2] (setting [10]), 96 ± 2.1% in test [2] (setting [11]) and 64 ± 2.8% in test [2] (setting [12]).
Regarding `N[C@@H](CCC(=O)N[C@@H](CS)C(=O)NCC(=O)O)C(=O)O` [glutathione, reduced, reduced glutathione], the midpoint of inhibition in test [1] (50 mM sodium phosphate buffer pH 7.5, 5 mM SDS, 25 °C, nonlinear regression), the IC50, lay at 62 ± 3 µM. In addition, the “concentration for complete suppression/inhibition of OePPO activity” value in test [1] (pH 7.5, 5 mM SDS) is 1 mM. Moreover, the “concentration with complete inhibitory effect” value in test [3], in test [4] and in test [5] was “around 1 mM” throughout.
Take `CCCCCCCCCCCCOS(=O)(=O)[O-].[Na+]` [SDS, sodium lauryl sulfate]: the “increase of OePPO activity versus absence of SDS” value in test [7] (5 mM SDS, phosphate buffer pH 7.5) is on record as ~10 fold. Moreover, in test [7] (100 mM SDS, phosphate buffer pH 7.5), the “OePPO activity compared to the absence of SDS” value is “three times the activity”. Besides, in test [7] (phosphate buffer pH 7.5, catechol), the “optimal SDS concentration for full activation of latent OePPO” value came out at 5 mM. Also, the “SDS concentration for full activation of latent PPO” value in test [3] and in test [8] was 2 mM throughout. The “SDS concentration necessary to achieve full activity” value in test [4] is 6.93 mM.
As for `NCCc1ccc(O)c(O)c1` [dopamine], the kcat in test [6] is given as 13.98 ± 0.07 s^–1.
Take `[Ca+2].[Cl-].[Cl-]` [CaCl2]: the relative activity in test [2] (setting [9]) is on record as 103 ± 2.0%; in test [2] (setting [10]), 96 ± 2.8%; in test [2] (setting [11]), 93 ± 2.9%; in test [2] (setting [12]), 66 ± 4.1%.
On the same counts, the results for `[Cl][Al]([Cl])[Cl]` [AlCl3] are 98 ± 1.9%, 90 ± 1.2%, 82 ± 2.7% and 0.0 ± 0.00%.
For `O=C(O)CCC(=O)O` [succinic acid], the residual activity result in test [3] was “exceeding 80%”; in test [4], > 60%.
For the compound `[Cl-].[Na+]` [NaCl], the relative activity in test [2] is 101 ± 3.1% and 99 ± 2.3% and 103 ± 2.8% and 88 ± 5.4%.
For `[Cl][Cr]([Cl])[Cl]` [CrCl3], the relative activity in test [2] (setting [9]) is listed as 80 ± 2.8%; in test [2] (1 mM metal salt, 50 mM sodium citrate buffer, 5 mM SDS, control without metal ions = 100%, listed as Cr^3+), 80%; in test [2] (setting [10]), 63 ± 1.6%; in test [2] (setting [11]), 0.0 ± 0.00%; in test [2] (10 mM metal salt, 50 mM sodium citrate buffer, 5 mM SDS, control without metal ions = 100%, listed as Cr^3+), “complete suppression”; in test [2] (setting [12]), 0.0 ± 0.00%.
Turning to `O=C(O)CC(O)(CC(=O)O)C(=O)O` [citric acid], the residual activity entry in test [3] is listed as “exceeding 80%”; in test [4] it was > 60%.
Consider `O=S(=O)([O-])[O-].[Cu+2]` [CuSO4], for which the relative activity in test [2] (setting [9]) is 106 ± 4.3%; in test [2] (setting [10]), 112 ± 1.9%; in test [2] (5 mM metal salt, 50 mM sodium citrate buffer, 5 mM SDS, control without metal ions = 100%, listed as Cu^2+) it was 112%; in test [2] (setting [11]), 110 ± 3.9%; in test [2] (setting [12]), 37 ± 2.6%; in test [2] (100 mM metal salt, 50 mM sodium citrate buffer, 5 mM SDS, control without metal ions = 100%, listed as Cu^2+), “drastically reduced”.
Take `[Cl-].[Cl-].[Mg+2]` [MgCl2]: the relative activity in test [2] (setting [9]) is 100 ± 2.7%; in test [2] (setting [10]), 97 ± 1.4%; in test [2] (setting [11]), 95 ± 1.8%; in test [2] (setting [12]), 72 ± 3.4%.
Take `OCCc1ccc(O)cc1` [tyrosol]: in test [6] (monophenolase activity, compared with tyramine), the “processed faster than tyramine” value is on record as > 10 times.
